# From ChEMBL document CHEMBL3351362, “In vitro antiparasitic activity of new thiosemicarbazones in strains of Trypanosoma cruzi” (Eur J Med Chem, 2014)
# Assays:
# [1] = Activation of human platelets assessed as CD62P expression at 3.9 ug/ml by flow cytometry relative to control; type: cell-based; conditions: platelet
# Trypanosoma cruzi [2] = test: Trypanocidal activity against epimastigote forms of Trypanosoma cruzi Punta Lobos after 24 hrs; type: functional
# [3] = Induction of apoptosis in human platelets assessed as late apoptotic cells after 10 mins using Annexin V/propidium iodide by flow cytometry (reference value: 0.02 %); type: cell-based; conditions: platelet
# [4] = Induction of apoptosis in human platelets assessed as early apoptotic cells after 10 mins using Annexin V/propidium iodide by flow cytometry (reference value: 10.30 %); type: cell-based; conditions: platelet
# [5] = Induction of apoptosis in human monocytes assessed as late apoptotic cells using Annexin V/propidium iodide by flow cytometry (reference value: 0.27 %); type: cell-based; conditions: monocyte
# [6] = Induction of apoptosis in human platelets assessed as necrotic cells after 10 mins using Annexin V/propidium iodide by flow cytometry (reference value: 0.07 %); type: cell-based; conditions: platelet
# [7] = Induction of apoptosis in human monocytes assessed as necrotic cells using Annexin V/propidium iodide by flow cytometry (reference value: 0.02 %); type: cell-based; conditions: monocyte
# [8] = Induction of apoptosis in human platelets assessed as viable cells after 10 mins using Annexin V/propidium iodide by flow cytometry (reference value: 89.61 %); type: cell-based, Platelet; conditions: read-out: Activity
# [9] = Induction of apoptosis in human monocytes assessed as early apoptotic cells using Annexin V/propidium iodide by flow cytometry (reference value: 2.18 %); type: cell-based; conditions: monocyte
# Trypanosoma cruzi [10] = test: Trypanocidal activity against epimastigote forms of Trypanosoma cruzi Queretaro after 24 hrs; type: functional
# [11] = Induction of apoptosis in human monocytes assessed as viable cells using Annexin V/propidium iodide by flow cytometry (reference value: 97.53 %); type: cell-based, Monocyte; conditions: read-out: Activity
SMILES,Activity [1],LC50 (Trypanosoma cruzi [2]),Activity [3],Activity [4],Activity [5],Activity [6],Activity [7],viability at 10 min [8],Activity [9],LC50 (Trypanosoma cruzi [10]),viability [11]
NC(=S)N/N=C/c1ccc(Sc2ccccc2C(F)(F)F)o1,22.14%,11.4 µg/mL,0.06%,17.31%,2.63%,0.05%,0.24%,82.6%,26.47%,14 µg/mL,70.7%
NC(=S)N/N=C/c1ccc(Sc2cccc(C(F)(F)F)c2)o1,19.06%,17.8 µg/mL,0.05%,8.87%,7.87%,0.17%,2.57%,90.9%,22.9%,7.8 µg/mL,66.7%
NC(=S)N/N=C/c1ccc(Sc2ccc(C(F)(F)F)cc2)o1,18.56%,8.3 µg/mL,0.08%,20.39%,4.48%,0.16%,1.18%,79.4%,21.44%,29.5 µg/mL,72.9%
NC(=S)N/N=C/c1ccc(Sc2ccc(C(F)(F)F)cc2[N+](=O)[O-])o1,23.63%,3.2 µg/mL,0.24%,12.48%,2.81%,0.09%,0.7%,87.2%,17.05%,3.4 µg/mL,79.4%
NC(=S)N/N=C/c1ccc(Sc2c(F)c(F)c(C(F)(F)F)c(F)c2F)o1,23.35%,5.1 µg/mL,0.03%,12.55%,4.76%,0.04%,0.62%,87.4%,21.91%,4.6 µg/mL,72.7%
O=C(Cn1ccnc1[N+](=O)[O-])NCc1ccccc1 [BENZNIDAZOLE],42.51%,4 µg/mL,0.02%,22.95%,4.78%,0.12%,0.51%,76.9%,18.79%,6.5 µg/mL,75.9%
CN(C)c1ccc(C(=C2C=CC(=[N+](C)C)C=C2)c2ccc(N(C)C)cc2)cc1.[Cl-] [GENTIAN VIOLET],–,15.8 µg/mL,–,–,–,–,–,–,–,6.2 µg/mL,–
